Assay results published in BindingDB's records for PubMed 35442672 (Fudan University, 2022).

Biological target: T1, Dual specificity mitogen-activated protein kinase kinase 3 (Homo sapiens, UniProt P46734)
T1 sequence (P46734 whole entry): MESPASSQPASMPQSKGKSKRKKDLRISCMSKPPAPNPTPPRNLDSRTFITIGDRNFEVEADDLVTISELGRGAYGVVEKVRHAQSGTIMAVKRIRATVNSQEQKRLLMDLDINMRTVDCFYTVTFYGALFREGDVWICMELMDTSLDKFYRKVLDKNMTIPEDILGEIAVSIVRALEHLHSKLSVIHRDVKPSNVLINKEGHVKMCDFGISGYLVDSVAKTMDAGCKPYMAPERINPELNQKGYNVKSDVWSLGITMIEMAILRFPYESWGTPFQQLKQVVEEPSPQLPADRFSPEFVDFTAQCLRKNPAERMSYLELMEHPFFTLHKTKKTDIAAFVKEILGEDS
Test: Binding affinity to CM5 chip immobilized human MKK3 (20 to 347 residues) expressed in Escherichia coli BL21 (DE3) assessed as dissociation constant, Kd by surface plasmon resonance analysis

- koff: 0.00361 s⁻¹
Compound: COc1ccc([C@H]2CC(=O)c3cc(OC)cc(OC)c32)cc1
